Data: patent US12501919B2, “Method for increasing anthocyanin content in carrots” (UNIVERSITY OF COPENHAGEN, priority 2016, dated 2025)
“Also recorded” adds a separate entry of the source.

What was measured:
[1] = tested on: black carrot (Deep Purple F1) roots; assay: Field trial, foliar spray on black carrot, small plots harvested 21 weeks after sowing; type: in vivo, Daucus carota ssp. sativus var. atrorubens Alef.; conditions: for increase of mean anthocyanin concentration of treated plants compared with respective controls: 21 weeks after sowing, foliar spray, 6 applications; for accumulation of anthocyanin in roots: field-applied, measured twenty-one weeks after sowing (FIG. 1, FIG. 2)
Protocol: (§1) The experiment consisted on a factorial combination of […] (Deep Purple F1) and three sowing dates: 19 May 2014, and 18 and 25 May 2015, in field trials in Taastrup, Denmark, at the experimental station in Højbakkegård (latitude 55, longitude […]). Seeds were provided by Chr. Hansen A/S. Plants were cultivated on loamy soil. Air temperatures during the growing period were slightly different in both years of cultivation (mean values of 2 years: 15.4 and 14.6° C., May-October). Rainfall was complemented by irrigation throughout carrot growth to avoid water stress. The routine techniques of cultivation and plant protection, recommended for carrot crop production were applied.
(§2) Plots were arranged in a randomized block design with three replications. In the three sowing dates, each plot consisted of three 4.5 m-long rows. Additionally, plots of three 12 m-long rows were arranged in 18 May 2015. 2-Chloroethylphosphonic acid solution (CERONE® brand ETHEPHON, 39.9% Bayer CropScience, Leverkusen, Germany) was applied as a foliar spray avoiding the rainy days, at rates of 0, 120 and 360 g·ha^−1 a.i. in 2014; 0, 360, and 720 g·ha^−1 a.i. in 2015 for small plots; and 0 and 360 g·ha^−1 a.i. for large plots. Applications were made using a CO2 backpack spaced 50 cm apart, beginning 6 weeks after planting and continuing every 3 weeks, for a total of 6 applications.
Small plots (4.5 m-long rows) were harvested 21 weeks after sowing. The roots were manually harvested from the middle part of each row.
In all analyses, 20 whole carrot roots per plot were washed and split lengthwise: 20 halves were ground in liquid nitrogen, and the generated powder was stored at −80° C. for further gene expression analyses; the complementary 20 halves were coarsely ground in a commercial blender, and 50 g of the resulting purée were immediately homogenized in 50 g of a 3% sulfuric acid solution (v/v), by using a Waring two-speed commercial blender (VWR—Bie & Berntsen, Herlev, Denmark). The resulting fine purée (4 g) was subsequently mixed with demineralized water (8 g) and vortexed. After incubation for 1 h at room temperature, the sample was centrifuged 20 min at 4500 rpm, and the supernatant (extract) was utilized for further analyses.
Soluble solids were calculated with a digital refractometer with automatic temperature compensation and operating range from 0 to 53° Brix. For its calculation, the carrot extract obtained was filtered through 0.45 μm membrane filters, and Brix measurements were performed using 1 mL of the filtrate. For each measurement, two technical replicates were made and their average was reported.
Dry matter was determined by the mass difference between the fresh sample and the dry sample. The sample was dried 24 h until it reached a constant weight using an oven at 90° C. The results were expressed as percentage of dry matter. For each measurement, two technical replicates were made and their average was reported.
(§3) TMC was measured spectrophotometrically based on the pH differential method, with slight modifications. The carrot extract was diluted by adding 20 volumes of 0.2 M KCl-HCl pH 1, and TMC was measured at […] and 700 nm (to correct for sediment) using a UV-Vis spectrophotometer (Evolution™ 220, Thermo Fischer Scientific, Waltham, MA, USA). The TMC was expressed as cyaniding-3-glucoside equivalents (ppm).
All analyses were performed with three technical and three biological replicates. Data were subjected to statistical analysis using SPSS software (version 22, SPSS Inc., Chicago, IL, USA). Treatments were compared using one-way analysis of variance (ANOVA) followed by a Tukey post hoc test. p<0.05 was considered significant.

[2] = tested on: black carrot (Deep Purple) roots; assay: Field trial, foliar spray on black carrot, large plots with successive harvests 7 to 35 weeks after planting; type: in vivo, Daucus carota ssp. sativus var. atrorubens Alef.
Protocol: as §1, §2
Large plots (12 m-long rows) were harvested several times from separate row segments, during the growing period from 30 Jun. 2015 to 19 Jan. 2016 (7, 10, 13, 16, 19, 22, 25, 26, 29 and 35 weeks after planting). Carrot production was estimated in large plots 21 weeks after planting: two meters per row was dug from each plot, and the carrots were washed and weighed. Measured weights were extrapolated to tons per hectare. […]
Soluble solids were calculated with a digital refractometer with automatic temperature compensation and operating range from 0 to 53° Brix. […]
Dry matter was determined by the mass difference between the fresh sample and the dry sample. […] The results were expressed as percentage of dry matter. […]
as §3, with “(ppm). […]” for “(ppm).”

[3] = treated plants versus controls (FIG. 1)

O=P(O)(O)CCCl [2-Chloroethylphosphonic acid]
effect of total amount applied on the accumulation of anthocyanin ([1]; 120, 360 and 720 g ha^-1 a.i. treatments compared, either growing season): no differences were found; also recorded: nonsignificant effect
increase of mean anthocyanin concentration of treated plants compared with respective controls ([1]; Harvest 1 (first of three repetitions of two growing seasons)): 49%
increase of mean anthocyanin concentration of treated plants compared with respective controls ([1]; Harvest 2 (second of three repetitions)): 38%
increase of mean anthocyanin concentration of treated plants compared with respective controls ([1]; Harvest 3 (third of three repetitions)): 65%
root weight ([1]; either growing season (FIG. 1)): did not affect
accumulation of anthocyanin in roots [1]: induced the accumulation of anthocyanin
accumulation of anthocyanin in roots ([1]; listed as ethylene-releasing compound): increased amounts of anthocyanin; also recorded: induced the accumulation of anthocyanin
increase of mean anthocyanin concentration in the roots of treated plants compared with respective controls (summary) ([1]; pre-harvest foliar spraying on black carrot leaves, over all repetitions): more than 35%
dry weight (DW) [1, 3]: lowest values
soluble sugar content (SSC) [1, 3]: lowest values
root colour in cross and longitudinal sections ([1]; treated roots versus untreated roots with white core (FIG. 2)): solid purple colour
TMC after the last application ([2]; 7 weeks after the application of the last treatment (22 to 27 weeks after planting) (FIG. 3A)): continued to increase
root length, treated versus untreated carrots ([2]; at each harvest time (FIG. 4)): differed insignificantly
root weight, treated versus untreated carrots ([2]; at each harvest time (FIG. 4)): differed insignificantly
mean anthocyanin concentration (TMC) of treated roots versus untreated ([2]; at every harvest point, 7 to 35 weeks after planting, 360 g ha^-1 a.i.): higher
